Data on four compounds can be found in paper PMC8842277, “Highly Antiproliferative Latonduine and Indolo[2,3-c]quinoline Derivatives: Complex Formation with Copper(II) Markedly Changes the Kinase Inhibitory Profile” (Journal of Medicinal Chemistry, 2022).

For data set [1], the system named is HCT-116 colon carcinoma cells. Description: MTT assay, 96 h. Type of data set: cell-based, human. From the text: (§1) The oncosuppressor protein p53 controls the cellular response to DNA strand breaks induced by cytotoxic drugs or by radiation.[58] The p53 protein may enhance cell chemosensitivity by promoting apoptosis via different mechanisms including activation of proapoptotic genes such as bax and repression of antiapoptotic genes such as bcl-2 or in contrast increase chemoresistance by promoting p21-mediated and p21-independent growth arrest and DNA repair and by activation of antiapoptotic genes such as bcl-x. There is strong evidence that the modulation of drug sensitivity by p53 may be both drug- and cell type-specific.[59] […] Accordingly, essential differences in chemosensitivity were observed between cells with wild-type p53 gene and cells with knocked out p53 gene by homologous recombination.[60]
(§2) Human colonic adenocarcinoma cell lines Colo 205 doxorubicin-sensitive (ATCC-CCL-222) and Colo 320/MDR-LRP multidrug resistant over-expressing ABCB1 (MDR1)-LRP (ATCC-CCL-220.1) were purchased from LGC Promochem, Teddington, UK. The cells were cultured in an RPMI 1640 medium supplemented with 10% heat-inactivated fetal bovine serum, 2 mM L-glutamine, 1 mM Na-pyruvate, and 10 mM HEPES. The semi-adherent human colon cancer cells were detached with Trypsin-Versene (EDTA) solution for 5 min at 37 °C. An MRC-5 human embryonal lung fibroblast cell line (ATCC CCL-171) was purchased from LGC Promochem, Teddington, UK. The cells were cultured in Eagle’s minimal essential medium (EMEM, containing 4.5 g L^–1 glucose) supplemented with a non-essential amino acid mixture, a selection of vitamins, and 10% heat-inactivated fetal bovine serum. The HCT-116 colon carcinoma cells and isogenic p53-knock-out subline were a gift of Prof. Bert Vogelstein from The Johns Hopkins Oncology Center. Cells were cultured in McCoy’s 5A medium supplemented with 10% heat-inactivated fetal bovine serum and 4 mM L-glutamine. All cell lines were incubated at 37 °C, in a 5% CO2, 95% air atmosphere.
(§3) MRC-5 non-cancerous human embryonic lung fibroblast and human colonic adeno-carcinoma cell lines (doxorubicin-sensitive Colo 205 and multidrug resistant Colo 320 colonic adenocarcinoma cells) were used to determine the effect of compounds on cell growth. The effects of increasing concentrations of compounds on cell growth were tested in 96-well flat-bottomed microtiter plates. The compounds were dissolved in DMSO and stock solutions of 10 mM were prepared. These were further diluted in the appropriate cell culture medium by twofold serial dilution starting from 100 or 10 μM for the compounds. The adherent human embryonal lung fibroblast cells were cultured in 96-well flat-bottomed microtiter plates using EMEM supplemented with 10% heat-inactivated fetal bovine serum. The density of the cells was adjusted to 1 × 10^4 cells in 100 μL per well, the cells were seeded for 24 h at 37 °C, 5% CO2, then the medium was removed from the plates containing the cells, and the dilutions of compounds previously made in a separate plate were added to the cells in 200 μL. In the case of the colonic adenocarcinoma cells, the twofold serial dilutions of compounds were prepared in 100 μL of RPMI 1640, horizontally. The semi-adherent colonic adenocarcinoma cells were treated with Trypsin-Versene (EDTA) solution. They were adjusted to a density of 1 × 10^4 cells in 100 μL of RPMI 1640 medium and were added to each well, with the exception of the medium control wells. […]

The subject of data set [2] is HCT-116 isogenic p53-knock-out subline. In words: MTT assay, 96 h. It is filed as cell-based, human. The conditions noted are these: read-out: IC50 HCT-116p53ko, mean.
Text: as §1, §2, §3

The next data set has as its system Colo320 cells. Description: Apoptosis assay, Annexin-V-FITC/PI flow cytometry. The conditions noted are these: 3 h induction. How it is done:
An apoptosis assay was performed by flow cytometry via the analysis of multidrug-resistant Colo320 cells stained with Annexin-V-FITC and propidium iodide (PI).
Colo320 cells were treated at the indicated concentration of the compounds. The dual parametric dot plots combining Annexin-V (FL1) and PI (FL3) fluorescence show the viable cell population in the lower left quadrant Annexin-V–/PI– (Q4), the early apoptotic cells in the lower right quadrant Annexin-V+/PI– (Q3), and the late apoptotic and necrotic cells in the upper right quadrant Annexin-V+/PI+ (Q2).
The assay was carried out for selected compounds using an Annexin V-FITC Apoptosis Detection Kit (cat. no. APOAF-50TST) from Sigma according to the manufacturer’s instructions. The concentration of the Colo320 cell suspension was adjusted to approximately 0.5 × 10^6 cells/mL in an RPMI 1640 medium, and the cell suspension was distributed in 1 mL of aliquots into a 24-well plate and then incubated overnight at 37 °C and 5% CO2. On the following day, the medium was removed and replaced by 1 mL of RPMI medium containing the compounds except the control samples. […] After the incubation period, the samples were washed with PBS and fresh RPMI 1640 medium was added to the samples. The cells were incubated overnight at 37 °C and 5% CO2. The next day, 200 μL of 0.25% Trypsin (Trypsin-Versen) was added to the samples until cells appeared detached followed by the addition of 400 μL of RPMI 1640 medium supplemented with 10% bovine serum. The cells were collected in Eppendorf tubes and centrifuged at 2000g for 2 min. The harvested cells were resuspended in fresh serum-free RPMI 1640 culture medium. After this step, the apoptosis assay was carried out according to the instructions of the manufacturer. The fluorescence was analyzed immediately using a ParTec CyFlow flow cytometer (Partec GmbH, Münster, Germany).
• Apoptosis and DNA binding studies […]

Details of data set [3]: method as in PMID 31125040. The conditions noted are these: cited from earlier work.
A short description of data set [4]: Solubility in water/DMSO 99/1. Type of data set: physicochemical. The protocol:
To a solution of HL^1 (203 mg, 0.45 mmol) in isopropanol (10 mL) a solution of CuCl2·2H2O (77 mg, 0.45 mmol) in methanol (500 μL) was added. The mixture was heated at reflux for 1 h, cooled to room temperature, and allowed to stand at 4 °C overnight. The product was filtered off, washed with isopropanol (3 mL), and dried in vacuo overnight to give a red-brown powder. Yield: 245 mg. Solubility in water/DMSO 99/1: ≥11 mg mL^–1.

Data set [5] is described as follows: Proton dissociation constants by UV–vis titration. It is filed as physicochemical. The conditions noted are these: 30–70% (w/w) DMSO–water. How it is done:
The protonation processes of HL^1nm and its morpholine counterpart HL^1 (Chart 3) and the solution stability of their copper(II) complexes (1nm and 1) were characterized by UV–vis spectrophotometry. […] Based on the characteristic changes in the UV–vis spectra for HL^1nm in the pH range 2–6 (Figure 3a), two relatively well-separated proton dissociation processes were observed and their pKa values were determined (Table 1).
An Agilent Carry 8454 diode array spectrophotometer was used to record the UV–visible (UV–vis) spectra in the interval 200–800 nm. The path length was 2 or 0.5 cm. Spectrophotometric titrations were performed on samples containing the proligands HL^1, HL^1nm, or their copper(II) complexes (1 and 1nm; see Chart 2) by a KOH solution in the presence of 0.1 M KCl in a DMSO:water 30:70 (w/w) mixture as a solvent at 25.0 ± 0.1 °C in the pH range from 2 to 11. […] An Orion 710A pH meter equipped with a Metrohm combined electrode (type 6.0234.100) and a Metrohm 665 Dosimat burette were used for the pH measurements and titrations. […] The average water ionization constant (pKw) is 14.52 ± 0.05, which corresponds well to the literature data.[103] Argon was passed over the solutions during the titrations. Proton dissociation constants (pKa) of the ligand, overall stability constants (log β) of the copper(II) complexes, and the individual spectra of the various species present in the solution were calculated by the computer program PSEQUAD.[104] β (MpLqHr) is defined for the general equilibrium pM + qL + rH MpLqHr as β (MpLqHr) = [MpLqHr]/[M]^p[L]^q[H]^r where M denotes the copper(II) ion and L the completely deprotonated ligand. The calculations were always made from the experimental titration data measured in the absence of any precipitate in the solution.

For data set [6], the system named is multidrug-resistant Colo320 human colon adenocarcinoma cells. In words: MTT antiproliferative assay. Type of data set: cell-based. The conditions noted are these: for selectivity factor (SF) Colo320: IC50 MRC-5/IC50 Colo320; for IC50: MTT, 72 h. How it is done:
(§4) The in vitro antiproliferative activity of the compounds was tested in doxorubicin-sensitive Colo205 and multidrug-resistant Colo320 human colon adenocarcinoma cell lines as well as in normal human embryonal lung fibroblast cells (MRC-5) by MTT assay.
as §2
(§5) MRC-5 non-cancerous human embryonic lung fibroblast and human colonic adeno-carcinoma cell lines (doxorubicin-sensitive Colo 205 and multidrug resistant Colo 320 colonic adenocarcinoma cells) were used to determine the effect of compounds on cell growth. The effects of increasing concentrations of compounds on cell growth were tested in 96-well flat-bottomed microtiter plates. The compounds were dissolved in DMSO and stock solutions of 10 mM were prepared. These were further diluted in the appropriate cell culture medium by twofold serial dilution starting from 100 or 10 μM for the compounds. The adherent human embryonal lung fibroblast cells were cultured in 96-well flat-bottomed microtiter plates using EMEM supplemented with 10% heat-inactivated fetal bovine serum. The density of the cells was adjusted to 1 × 10^4 cells in 100 μL per well, the cells were seeded for 24 h at 37 °C, 5% CO2, then the medium was removed from the plates containing the cells, and the dilutions of compounds previously made in a separate plate were added to the cells in 200 μL. In the case of the colonic adenocarcinoma cells, the twofold serial dilutions of compounds were prepared in 100 μL of RPMI 1640, horizontally. The semi-adherent colonic adenocarcinoma cells were treated with Trypsin-Versene (EDTA) solution. They were adjusted to a density of 1 × 10^4 cells in 100 μL of RPMI 1640 medium and were added to each well, with the exception of the medium control wells. The final volume of the wells containing compounds and cells was 200 μL. The culture plates were incubated at 37 °C for 72 h; at the end of the incubation period, 20 μL of MTT (thiazolyl blue tetrazolium bromide, Sigma) solution (from a stock solution of 5 mg mL^–1) was added to each well. After incubation at 37 °C for 4 h, 100 μL of sodium dodecyl sulfate (SDS) (Sigma) solution (10% in 0.01 M HCI) was added to each well and the plates were further incubated at 37 °C overnight. Cell growth was determined by measuring the optical density (OD) at 540/630 nm with a Multiscan EX ELISA reader (Thermo Labsystems, Cheshire, WA, USA). […] Curves were fitted by GraphPad Prism software[57] using the sigmoidal dose–response model (comparing variable and fixed slopes). The IC50 values were obtained from at least three independent experiments. Tests in adherent HCT-116 colon carcinoma cells and an isogenic p53-knock-out subline thereof were performed in a similar manner, with 1.5 × 10^3 cells seeded in 100 μL of McCoy’s 5A medium (Sigma-Aldrich) per well. […]

Data set [7] deals with normal human embryonal lung fibroblast cells (MRC-5). Description: MTT antiproliferative assay. It is filed as cell-based. The conditions noted are these: 72 h, read-out: IC50 MRC-5 benign, mean. How it is done: as §4, §2, §5
The subject of data set [8] is doxorubicin-sensitive Colo205 human colon adenocarcinoma cells. Description: MTT antiproliferative assay. It is filed as cell-based. The conditions noted are these: for selectivity factor (SF) Colo205: IC50 MRC-5/IC50 Colo205; for IC50: MTT, 72 h. The protocol: as §4, §2, §5
The nature of data set [9]: Thermodynamic solubility, UV–vis of saturated solutions. The conditions noted are these: water, 298 K. How it is done: The concentration of the compounds was determined by UV–vis spectrophotometry using stock solutions of the compounds with a known concentration dissolved in pure DMSO and 50% (v/v) DMSO/buffered aqueous solution for the calibration.

As for `N.N.[Cl][Pt][Cl]` [cisplatin, reference compound], the half-inhibitory concentration (IC50) in [1] worked out at 0.78 µM. Besides, the 50% inhibitory concentration (IC50) in data set [2] was 1.7 µM. Moreover, in the data set on Colo320 cells (15 µM), the “Cell death % Q1” value turned out to be 1.64%; the “Early apoptosis % Q3” value is 1.68%; the “Late apoptosis and necrosis % Q2” value was found to be 2.24%. Also, in the data set with Colo320 cells (30 µM), the “Cell death % Q1” value is reported as 0.79%; the “Early apoptosis % Q3” value is on record as 4.90%; the “Late apoptosis and necrosis % Q2” value is 4.07%.

Consider `CC(=NN=C1NCc2ccccc2-c2c1[nH]c1ccccc21)c1ccccn1` [HL^3nm], for which, in data set [3], the “log β (copper(II) complexes of HL^3nm)” value is 6.39 and the “log β [Cu(HL^3nm)]^2+” value is 10.96.

In the case of `C(=NNC1=NCc2ccccc2-c2c1[nH]c1ccccc21)c1ccc(CN2CCOCC2)cn1.[Cl][Cu][Cl]` [compound 1, CuCl2(HL^1)·H2O], the “Solubility in water/DMSO 99/1” value in data set [4] is reported as ≥ 11 mg mL^–1. Moreover, the “pKa [CuH(HL^1)]^3+” value in data set [5] (298 K, I = 0.10 M (KCl)) was determined as 3.81. Further, in data set [5] (overlapping species (footnote a)), the “pKa [CuH(L^1)]^2+” value came out at 5.71. Also, the “selectivity factor (SF) Colo320” value in data set [6] turned out to be 0.83. In addition, the IC50 in data set [6] came out at 2.29 µM; in data set [7], 1.9 µM; in [8], 1.43 µM. Besides, the “selectivity factor (SF) Colo205” value in data set [8] turned out to be 1.33.

As to `CC(=NNC1=NCc2ccccc2-c2c1[nH]c1ccccc21)c1ccc(CN2CCOCC2)cn1.[Cl][Cu][Cl]` [compound 3, CuCl2(HL^3)·0.2C3H7OH·0.3H2O], in [4], the “Solubility in water/DMSO 99/1” value is reported as ≥ 10 mg mL^–1. The “Thermodynamic solubility (S)” value in [9] (pH 5, 20 mM MES buffer) worked out at 63.4 µM; in [9] (pH 7.4, 20 mM HEPES), 6.0 µM. Besides, in [6], the “selectivity factor (SF) Colo320” value turned out to be 1.23. The IC50 was found to be 0.335 µM in data set [6], 0.413 µM in [7] and 0.23 µM in [8]. For the same compound, the “selectivity factor (SF) Colo205” value in data set [8] is 1.80.
